Reference: patent US6355799B1, “Substituted benzene compounds, process for their preparation, and herbicidal and defoliant compositions containing them” (ISK Americas Incorporated, priority 1997, dated 2002)

How the values were obtained:
Assay type in all cases: in vivo
[1] = tested on: sicklepod (Cassia obtusifolia, CASOB); test: Post-emerge test, greenhouse herbicide activity screening; settings: post-emerge, 14 days after application, rating scale 0-100
Outline: (§1)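 Rating: 0–100 visual injury, 14 DAA. Application: acetone, 187 l/ha, 15–1000 g ai/ha, flat-fan track sprayer with nozzle 40–45 cm above soil or canopy. Post-emerge runs used 0.25% v/v surfactant on 2–3 leaf plants.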

[2] = tested on: barnyardgrass (Echinochloa crus-galli, ECHCG); test: as above; settings: post-emerge, 14 days after application, rating scale 0-100
Outline: as §1

[3] = tested on: green foxtail (Setaria viridis, SETVI); test: as above; settings: post-emerge, 14 days after application, rating scale 0-100
Outline: as §1

[4] = tested on: velvetleaf (Abutilon theophrasti, ABUTH); test: as above; settings: post-emerge, 14 days after application, rating scale 0-100
Outline: as §1

[5] = tested on: ivyleaf morningglory (Ipomoea hederacea, IPOHE); test: as above; settings: post-emerge, 14 days after application, rating scale 0-100
Outline: as §1

[6] = tested on: large crabgrass (Digitaria sanguinalis, DIGSA); test: as above; settings: post-emerge, 14 days after application, rating scale 0-100
Outline: as §1

[7] = tested on: lambsquarters (Chenopodium album, CHEAL); test: as above; settings: post-emerge, 14 days after application, rating scale 0-100
Outline: as §1

[8] = tested on: johnsongrass (Sorghum halepense, SORHA); test: as above; settings: post-emerge, 14 days after application, rating scale 0-100
Outline: as §1

[9] = tested on: redroot pigweed (Amaranthus retroflexus, AMARE); test: as above; settings: post-emerge, 14 days after application
Outline: as §1

[10] = tested on: redroot pigweed (Amaranthus retroflexus, AMARE); test: Pre-emerge test, greenhouse herbicide activity screening; settings: phytotoxicity rating 0-100, 14 days after application
Outline: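 Visual ratings on a 0-100 scale (0 no damage, 100 all plants dead) were taken at 14 days after treatment. Rates of 15-1000 g ai/ha in acetone, 187 l/ha, were sprayed onto soil one day after planting (pre-emerge) or onto 2-3 leaf plants with 0.25% v/v surfactant (post-emerge).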

[11] = tested on: sicklepod (Cassia obtusifolia, CASOB); test: as above; settings: phytotoxicity rating 0-100, 14 days after application
Outline: (§2)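 Compounds in acetone were track-sprayed at 187 l/ha, 15–1000 g ai/ha, onto sandy loam pots. Pre-emerge seeds were sown one day before spraying, with surface watering afterwards. Post-emerge plants were at the 2–3 leaf stage and sprayed with 0.25% v/v non-ionic surfactant. Injury was rated 0–100 at 14 days.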

[12] = tested on: barnyardgrass (Echinochloa crus-galli, ECHCG); test: as above; settings: phytotoxicity rating 0-100, 14 days after application
Outline: as §2

[13] = tested on: green foxtail (Setaria viridis, SETVI); test: as above; settings: phytotoxicity rating 0-100, 14 days after application
Outline: as §2

[14] = tested on: velvetleaf (Abutilon theophrasti, ABUTH); test: as above; settings: phytotoxicity rating 0-100, 14 days after application
Outline: as §2

[15] = tested on: ivyleaf morningglory (Ipomoea hederacea, IPOHE); test: as above; settings: phytotoxicity rating 0-100, 14 days after application
Outline: as §2

[16] = tested on: large crabgrass (Digitaria sanguinalis, DIGSA); test: as above; settings: phytotoxicity rating 0-100, 14 days after application
Outline: as §2

[17] = tested on: lambsquarters (Chenopodium album, CHEAL); test: as above; settings: phytotoxicity rating 0-100, 14 days after application
Outline: as §2

[18] = tested on: johnsongrass (Sorghum halepense, SORHA); test: as above; settings: phytotoxicity rating 0-100, 14 days after application
Outline: as §2

[19] = tested on: upland rice (Oryza sp., var. Tebonnet, RICE); test: Pre-emerge test, crop safety; settings: crop damage rating 0-100, 14 days after application
Outline: as §2

[20] = tested on: field corn (Zea mays L., var. Dekalb 535, CORN); test: Pre-emerge test, crop safety; settings: crop damage rating 0-100, 14 days after application
Outline: as §2

[21] = tested on: upland rice (Oryza sp., var. Tebonnet, RICE); test: Post-emerge test, crop safety; settings: post-emerge, 14 days after application, rating scale 0-100
Outline: as §2

[22] = tested on: field corn (Zea mays L., var. Dekalb 535, CORN); test: Post-emerge test, crop safety; settings: post-emerge, 14 days after application, rating scale 0-100
Outline: as §2

## COc1c(Cl)cc(F)c(-n2c(=O)cc(C(F)(F)F)n(C)c2=O)c1NC(=O)OCc1ccc(C)c(C)c1 [4-26]
[1]; 63 g ai/ha
  phytotoxicity rating CASOB: 30
[1]; 250 g ai/ha
  phytotoxicity rating CASOB: 60
[2]; 63 g ai/ha
  phytotoxicity rating ECHCG: 10
[2]; 250 g ai/ha
  phytotoxicity rating ECHCG: 50
[3]; 63 g ai/ha
  phytotoxicity rating SETVI: 20
[3]; 250 g ai/ha
  phytotoxicity rating SETVI: 60
[4]; 63 g ai/ha
  phytotoxicity rating ABUTH: 100
[4]; 250 g ai/ha
  phytotoxicity rating ABUTH: 100
[5]; 63 g ai/ha
  phytotoxicity rating IPOHE: 100
[5]; 250 g ai/ha
  phytotoxicity rating IPOHE: 100
[6]; 63 g ai/ha
  phytotoxicity rating DIGSA: 20
[6]; 250 g ai/ha
  phytotoxicity rating DIGSA: 50
[7]; 63 g ai/ha
  phytotoxicity rating CHEAL: 90
[7]; 250 g ai/ha
  phytotoxicity rating CHEAL: 100
[8]; 63 g ai/ha
  phytotoxicity rating SORHA: 10
[8]; 250 g ai/ha
  phytotoxicity rating SORHA: 50
[9]; 63 g ai/ha, rating scale 0-100 (0 no damage, 100 complete death)
  phytotoxicity rating AMARE: 100
[9]; 250 g ai/ha, rating scale 0-100
  phytotoxicity rating AMARE: 100
[10]; 63 g ai/ha
  Pre-emerge Herbicidal Activity AMARE: 70
[10]; 250 g ai/ha
  Pre-emerge Herbicidal Activity AMARE: 100
[11]; 63 g ai/ha
  Pre-emerge Herbicidal Activity CASOB: 0
[11]; 250 g ai/ha
  Pre-emerge Herbicidal Activity CASOB: 0
[12]; 63 g ai/ha
  Pre-emerge Herbicidal Activity ECHCG: 0
[12]; 250 g ai/ha
  Pre-emerge Herbicidal Activity ECHCG: 30
[13]; 63 g ai/ha
  Pre-emerge Herbicidal Activity SETVI: 75
[13]; 250 g ai/ha
  Pre-emerge Herbicidal Activity SETVI: 95
[14]; 63 g ai/ha
  Pre-emerge Herbicidal Activity ABUTH: 80
[14]; 250 g ai/ha
  Pre-emerge Herbicidal Activity ABUTH: 100
[15]; 63 g ai/ha
  Pre-emerge Herbicidal Activity IPOHE: 0
[15]; 250 g ai/ha
  Pre-emerge Herbicidal Activity IPOHE: 10
[16]; 63 g ai/ha
  Pre-emerge Herbicidal Activity DIGSA: 10
[16]; 250 g ai/ha
  Pre-emerge Herbicidal Activity DIGSA: 90
[17]; 63 g ai/ha
  Pre-emerge Herbicidal Activity CHEAL: 100
[17]; 250 g ai/ha
  Pre-emerge Herbicidal Activity CHEAL: 100
[18]; 63 g ai/ha
  Pre-emerge Herbicidal Activity SORHA: 0
[18]; 250 g ai/ha
  Pre-emerge Herbicidal Activity SORHA: 20
[19]; 63 g ai/ha
  Pre-emerge Herbicidal Activity RICE: 0
[19]; 250 g ai/ha
  Pre-emerge Herbicidal Activity RICE: 45
[20]; 63 g ai/ha
  Pre-emerge Herbicidal Activity CORN: 0
[20]; 250 g ai/ha
  Pre-emerge Herbicidal Activity CORN: 0
[21]; 63 g ai/ha
  phytotoxicity rating RICE (crop damage): 15
[21]; 250 g ai/ha
  phytotoxicity rating RICE (crop damage): 45
[22]; 63 g ai/ha
  phytotoxicity rating CORN (crop damage): 5
[22]; 250 g ai/ha
  phytotoxicity rating CORN (crop damage): 20
